Experimental data as given in PubChem BioAssay AID1745844 (Carcinogenic Potency Database (CPDB), 2022).
Calls of active or inactive are those of the source. No rule for the calls is given here.

Tested on: rodent lifetime carcinogenesis bioassay, tumor incidence TD50
Assay: chronic cancer bioassays in animals – CPDB, compiled studies (AID 1745844)
Conditions: in feed

Cc1ccc(/C(=C\CN2CCCC2)c2ccccn2)cc1
inactive: carcinogen call (mouse, strain B6C3F1, females, site: any site (literature study), lesion: benign tumor, dosed 104 weeks, study length 105 weeks) negative | carcinogen call (mouse, strain B6C3F1, females, site: any site (literature study), lesion: malignant tumor, dosed 104 weeks, study length 105 weeks) negative | carcinogen call (mouse, strain B6C3F1, females, site: any site (literature study), lesion: several types, types named in the paper, dosed 104 weeks, study length 105 weeks) negative | carcinogen call (mouse, strain B6C3F1, females, site: liver, lesion: hepatocellular adenoma, dosed 104 weeks, study length 105 weeks) negative | carcinogen call (mouse, strain B6C3F1, females, site: liver, lesion: hepatocellular carcinoma, dosed 104 weeks, study length 105 weeks) negative | carcinogen call (mouse, strain B6C3F1, females, site: liver, lesion: several types, types named in the paper, dosed 104 weeks, study length 105 weeks) negative | carcinogen call (mouse, strain B6C3F1, females, site: lung, lesion: several types, types named in the paper, dosed 104 weeks, study length 105 weeks) negative | carcinogen call (mouse, strain B6C3F1, males, site: any site (literature study), lesion: benign tumor, dosed 104 weeks, study length 105 weeks) negative | carcinogen call (mouse, strain B6C3F1, males, site: any site (literature study), lesion: malignant tumor, dosed 104 weeks, study length 105 weeks) negative | carcinogen call (mouse, strain B6C3F1, males, site: any site (literature study), lesion: several types, types named in the paper, dosed 104 weeks, study length 105 weeks) negative | TD50 (mouse, strain B6C3F1, males, site: liver, lesion: hepatocellular adenoma, dosed 104 weeks, study length 105 weeks) 2330 mg/kg/day | carcinogen call (mouse, strain B6C3F1, males, site: liver, lesion: hepatocellular carcinoma, dosed 104 weeks, study length 105 weeks) negative | TD50 (mouse, strain B6C3F1, males, site: liver, lesion: several types, types named in the paper, dosed 104 weeks, study length 105 weeks) 2750 mg/kg/day | carcinogen call (mouse, strain B6C3F1, males, site: lung, lesion: several types, types named in the paper, dosed 104 weeks, study length 105 weeks) negative | carcinogen call (rat, strain Fischer 344, females, site: any site (literature study), lesion: benign tumor, dosed 103 weeks, study length 104 weeks) negative | carcinogen call (rat, strain Fischer 344, females, site: any site (literature study), lesion: malignant tumor, dosed 103 weeks, study length 104 weeks) negative | carcinogen call (rat, strain Fischer 344, females, site: any site (literature study), lesion: several types, types named in the paper, dosed 103 weeks, study length 104 weeks) negative | carcinogen call (rat, strain Fischer 344, females, site: liver, lesion: hepatocellular adenoma, dosed 103 weeks, study length 104 weeks) negative | carcinogen call (rat, strain Fischer 344, females, site: liver, lesion: hepatocellular carcinoma, dosed 103 weeks, study length 104 weeks) negative | TD50 (rat, strain Fischer 344, males, site: any site (literature study), lesion: benign tumor, dosed 103 weeks, study length 104 weeks) 1170 mg/kg/day | carcinogen call (rat, strain Fischer 344, males, site: any site (literature study), lesion: malignant tumor, dosed 103 weeks, study length 104 weeks) negative | carcinogen call (rat, strain Fischer 344, males, site: any site (literature study), lesion: several types, types named in the paper, dosed 103 weeks, study length 104 weeks) negative | carcinogen call (rat, strain Fischer 344, males, site: liver, lesion: hepatocellular adenoma, dosed 103 weeks, study length 104 weeks) negative | carcinogen call (rat, strain Fischer 344, males, site: liver, lesion: hepatocellular carcinoma, dosed 103 weeks, study length 104 weeks) negative
